Earlier results, collected in patent US9408814B2, “Modified release dosage form comprising desvenlafaxine or salts thereof” (WOCKHARDT LIMITED, priority 2010, dated 2016).
Like-named read-outs stand apart in the source and are kept apart here.

How the values were obtained:
[1] = at pH 7.0
[2] = not given; remark: listed apart in the source

solubility at gastric pH (gastric pH) | solubility at intestinal pH (intestinal pH) | octanol:aqueous system partition coefficient [1] | pH dependence of solubility (solubility increases at lower pH) | solubility in water (water) | pKa ([2]; dimethylamino group) | pKa ([2]; phenolic group) | Structure (SMILES)
relatively good solubility | poor solubility |  |  |  |  |  | CN(C)CC(c1ccc(O)cc1)C1(O)CCCCC1.O=C(O)CCC(=O)O (stereo not shown) [Desvenlafaxine, RS-4-[2-dimethylamino-1-(1-hydroxycyclohexyl)ethyl]phenol]
 |  | 0.21 | pH dependent | soluble in water | 8.34 | 10.11 | CN(C)CC(c1ccc(O)cc1)C1(O)CCCCC1 (stereo not shown) [Desvenlafaxine succinate]
